In patent US20200316087A1, “NOVEL COMBINATION THERAPY FOR ANXIETY DISORDERS, EPILEPSY, AND PAIN” (priority 2017, published 2020):

Test system: motor performance on an inverted screen
Test: Rat inverted screen test (motor impairment)
Settings: 300 mg/kg, rats; positive control
From the text: The motor effects of Diazepam and KRM-II-81 were studied on the inverted screen. The inverted screen test is used to measure whether or not a test compound induces muscle relaxation. When a test subject is placed on a wire screen which is then inverted, the reaction is to climb to the opposite side so they are no longer hanging upside down.
Male, Sprague Dawley rats (Harlan Sprague Dawley, Indianapolis, Ind.) were used and weighed 90-110 g when evaluated in experiments. […] Rats were placed onto the top of a wire screen, which was then inverted so that the rats were hanging upside down.
Male Sprague-Dawley rats (n=5) were dosed i.p. (vehicle=1% carboxymethyl cellulose) with diazepam (3, 10, or 30 mg/kg), KRM-II-81 (10, 30, or 60 mg/kg) or HZ-166 (30 mg/kg) 30 minutes prior to testing. Rats were placed onto the top of a wire screen, which was then inverted so that the rats were hanging upside down. […] Results were analyzed using ANOVA (Dunnett's test: *P<0.05).
For the in vivo assays, minimal effective doses (MED) were calculated in mg/kg. MED was defined as the lowest dose administered that produced statistically significant protection compared to vehicle control in the anticonvulsant assays. The MED, or minimal toxic dose (MTD) for motor impairment, was the minimal dose required to produce statistically-significant impairment in motor performance. Doses tested are shown in the figures and tables and are generally dosed in ½ log increments. The protective index (PT) was calculated at the MTD/MED.

SMILES: CCCC(CCC)C(=O)O [valproate, Valproic acid, reference compound]
- motor impairment on inverted screen: full motor impairment
